The assay addresses T1, SIRT1 (Homo sapiens, UniProt Q96EB6).
T1 sequence (Q96EB6 1-747): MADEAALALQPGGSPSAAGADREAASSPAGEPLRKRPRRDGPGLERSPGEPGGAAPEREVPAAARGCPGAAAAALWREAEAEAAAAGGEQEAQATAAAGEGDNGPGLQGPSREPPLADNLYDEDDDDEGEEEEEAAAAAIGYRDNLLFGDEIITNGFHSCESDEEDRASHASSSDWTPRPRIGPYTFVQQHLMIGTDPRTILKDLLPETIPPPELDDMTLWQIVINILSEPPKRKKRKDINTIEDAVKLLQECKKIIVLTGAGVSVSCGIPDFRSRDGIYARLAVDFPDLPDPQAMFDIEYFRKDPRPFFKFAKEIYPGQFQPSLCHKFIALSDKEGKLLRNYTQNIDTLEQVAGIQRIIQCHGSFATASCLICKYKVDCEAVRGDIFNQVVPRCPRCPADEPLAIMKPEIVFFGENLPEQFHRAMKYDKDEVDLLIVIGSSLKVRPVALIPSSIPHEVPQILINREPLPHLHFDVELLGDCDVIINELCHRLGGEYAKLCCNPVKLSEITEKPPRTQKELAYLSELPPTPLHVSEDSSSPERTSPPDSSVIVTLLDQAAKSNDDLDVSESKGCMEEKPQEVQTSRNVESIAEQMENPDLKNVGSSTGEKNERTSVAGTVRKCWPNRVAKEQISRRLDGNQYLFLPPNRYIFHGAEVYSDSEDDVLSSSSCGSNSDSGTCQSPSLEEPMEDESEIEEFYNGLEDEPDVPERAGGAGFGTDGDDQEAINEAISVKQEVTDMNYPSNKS
Kind of assay: TAMRA based mass spectrometry assay of SIRT1 activity. In kind it is biochemical. The following applies: TAMRA peptide substrate; for TAMRA EC1.5 (μM): concentration of test compound giving 150% activation of SIRT1; for Emax: percent maximum fold activation of SIRT1, read-out: TAMRA % Fold Act. The text has this:
Mass spectrometry based assays were used to identify modulators of SIRT1 activity. The TAMRA based assay utilized a peptide having 20 amino acid residues as follows: Ac-EE-K(biotin)-[…](Ac)NleSTEG-K(5TMR)-EE-NH2 (SEQ ID NO: 1), wherein K(Ac) is an acetylated lysine residue and Nle is a norleucine. The peptide was labeled with the fluorophore 5TMR (excitation 540 nm/emission 580 nm) at the C-terminus. The sequence of the peptide substrate was based on p53 with several modifications. In addition, the methionine residue naturally present in the sequence was replaced with the norleucine because the methionine may be susceptible to oxidation during synthesis and purification. The Trp based assay utilized a peptide having an amino acid residues as follows: Ac-R-H-K-K(Ac)-W-NH2 (SEQ ID NO: 2).
The TAMRA based mass spectrometry assay was conducted as follows: 0.5 μM peptide substrate and 120 μM βNAD^+ was incubated with 10 nM SIRT1 for 25 minutes at 25° C. in a reaction buffer (50 mM Tris-acetate pH 8, 137 mM NaCl, 2.7 mM KCl, 1 mM MgCl2, 5 mM DTT, 0.05% BSA). The SIRT1 protein was obtained by cloning the SirT1 gene into a T7-promoter containing vector, which was then transformed and expressed in BL21(DE3) bacterial cells. Test compound was added at varying concentrations to this reaction mixture and the resulting reactions were monitored. After the 25 minute incubation with SIRT1, 10 μL of 10% formic acid was added to stop the reaction. The resulting reactions were sealed and frozen for later mass spec analysis. Determination of the amount of deacetylated substrate peptide formed (or, alternatively, the amount of O-acetyl-ADP-ribose (OAADPR) generated) by the sirtuin-mediated NAD-dependent deacetylation reaction allowed for the precise measurement of relative SIRT1 activity in the presence of varying concentrations of the test compound versus control reactions lacking the test compound.
A control for inhibition of sirtuin activity was conducted by adding 1 μL of 500 mM nicotinamide as a negative control at the start of the reaction (e.g., permits determination of maximum sirtuin inhibition). A control for activation of sirtuin activity was conducted using 10 nM of sirtuin protein, with 1 μL of DMSO in place of compound, to determine the amount of deacetylation of the substrate at a given time point within the linear range of the assay. This time point was the same as that used for test compounds and, within the linear range, the endpoint represents a change in velocity.
For the above assay, SIRT1 protein was expressed and purified as follows. The SirT1 gene was cloned into a T7-promoter containing vector and transformed into BL21(DE3). The protein was expressed by induction with 1 mM IPTG as an N-terminal His-tag fusion protein at 18° C. overnight and harvested at 30,000×g. Cells were lysed with lysozyme in lysis buffer (50 mM Tris-HCl, 2 mM Tris[2-carboxyethyl]phosphine (TCEP), 10 μM ZnCl2, 200 mM NaCl) and further treated with sonication for […] for complete lysis. The protein was purified over a Ni-NTA column (Amersham) and fractions containing pure protein were pooled, concentrated and run over a sizing column (Sephadex S200 26/60 global). The peak containing soluble protein was collected and run on an Ion-exchange column (MonoQ). Gradient elution (200 mM-500 mM NaCl) yielded pure protein. This protein was concentrated and dialyzed against dialysis buffer (20 mM Tris-HCl, 2 mM TCEP) overnight. The protein was aliquoted and frozen at −80° C. until further use.

A value given as a limit tells only on which side of the number the result lay.

On to `Cc1noc(C)c1-c1ccc2ncc(C(=O)Nc3ccnc(N4CCC4)c3)n2n1` [Compound 55], for which the “TAMRA EC1.5 (μM)” value is recorded as “C (EC1.5>25 μM)” and the Emax was under 350%.

With `Cn1cc(-c2ccc3ncc(C(=O)Nc4ccnc(N5CCCC5)c4)n3n2)cn1` [Compound 57], the “TAMRA EC1.5 (μM)” value was “C (EC1.5>25 μM)” and the Emax was under 350%.

As to `Cc1ncccc1-c1ccc2ncc(C(=O)Nc3cccc(N4CCOCC4)n3)n2n1` [Compound 58], the “TAMRA EC1.5 (μM)” value is reported as “B (EC1.5 1-25 μM)” and the Emax is under 350%.

In the case of `O=C(Nc1cccc(N2CCOCC2)n1)c1cnc2ccc(-c3cncc(C(F)F)c3)nn12` [Compound 60], the “TAMRA EC1.5 (μM)” value is listed as “A (EC1.5<1 μM)” and the Emax was under 350%.

For the compound `O=C(Nc1ccnc(N2CCCC2)c1)c1cnc2ccc(-c3cncc(C(F)F)c3)nn12` [Compound 61], the “TAMRA EC1.5 (μM)” value is given as “B (EC1.5 1-25 μM)” and the Emax is under 350%.

On to `Cc1ncccc1-c1ccc2ncc(C(=O)Nc3ccnc(N4CCC4)c3)n2n1` [Compound 63], for which the “TAMRA EC1.5 (μM)” value is “C (EC1.5>25 μM)” and the Emax was under 350%.

With `Cc1nc(C)c(-c2ccc3ncc(C(=O)Nc4cccc(N5CCOCC5)n4)n3n2)s1` [Compound 65], the “TAMRA EC1.5 (μM)” value was “A (EC1.5<1 μM)” and the Emax was under 350%.

Turning to `O=C(Nc1cccc(N2CCCC2)n1)c1nnc2ccc(-c3ccccc3C(F)(F)F)nn12` [Compound 66], the “TAMRA EC1.5 (μM)” value is “A (EC1.5<1 μM)” and the Emax is at least 350%.

For `O=C(Nc1cccc(N2CCOCC2)n1)c1nnc2ccc(-c3ccccc3C(F)(F)F)nn12` [Compound 67], the “TAMRA EC1.5 (μM)” value was “A (EC1.5<1 μM)” and the Emax is at least 350%.

Consider `Cc1nc2ccc(-c3ccccc3C(F)(F)F)nn2c1C(=O)Nc1cccc(N2CCCC2)n1` [Compound 70], for which the “TAMRA EC1.5 (μM)” value is reported as “A (EC1.5<1 μM)” and the Emax is at least 350%.

Regarding `Cc1nc2ccc(-c3ccccc3C(F)F)nn2c1C(=O)Nc1ccnc(N2CCOCC2)c1` [Compound 72], the “TAMRA EC1.5 (μM)” value is recorded as “A (EC1.5<1 μM)” and the Emax was at least 350%.

As for `O=C(Nc1cccc(N2CCC2)n1)c1nnc2ccc(-c3ccccc3C(F)(F)F)nn12` [Compound 73, N-(6-(azetidin-1-yl)pyridin-2-yl)-6-(2-(trifluoromethyl)phenyl)-[1,2,4]-triazolo[4,3-b]pyridazine-3-carboxamide], the “TAMRA EC1.5 (μM)” value was “A (EC1.5<1 μM)” and the Emax is under 350%.

As to `O=C(Nc1cc(OCC(O)CO)ccn1)c1cnc2ccc(-c3ccccc3C(F)(F)F)nn12` (stereo not drawn) [Compound 75, N-(4-(2,3-dihydroxypropoxy)pyridin-2-yl)-6-(2-(trifluoromethyl)phenyl)imidazo[1,2-b]pyridazine-3-carboxamide], the “TAMRA EC1.5 (μM)” value is recorded as “B (EC1.5 1-25 μM)” and the Emax is at least 350%.

In the case of `Cc1cc(OCC(O)CO)nc(NC(=O)c2cnc3ccc(-c4ccccc4C(F)(F)F)nn23)n1` (stereo not drawn) [Compound 76], the “TAMRA EC1.5 (μM)” value is “B (EC1.5 1-25 μM)” and the Emax was at least 350%.

In the case of `O=C(Nc1cccnn1)c1cnc2ccc(-c3ccccc3C(F)(F)F)nn12` [Compound 79], the “TAMRA EC1.5 (μM)” value is “B (EC1.5 1-25 μM)” and the Emax was at least 350%.

For the compound `O=C(Nc1cnc2ccc(-c3ccccc3C(F)(F)F)nn12)c1cccc(CN2CCOCC2)n1` [Compound 81], the “TAMRA EC1.5 (μM)” value is “A (EC1.5<1 μM)” and the Emax was at least 350%.

Take `O=C(Nc1cnc2ccc(-c3ccccc3C(F)(F)F)nn12)c1cccc(N2CCOCC2)n1` [Compound 82]: the “TAMRA EC1.5 (μM)” value is “A (EC1.5<1 μM)” and the Emax is at least 350%.

Regarding `O=C(Nc1cnc2ccc(-c3ccccc3C(F)(F)F)nn12)c1ccccn1` [Compound 85], the “TAMRA EC1.5 (μM)” value is recorded as “A (EC1.5<1 μM)” and the Emax was at least 350%.

Take `O=C(Nc1cnc2ccc(-c3ccccc3C(F)(F)F)nn12)c1ccncc1` [Compound 87]: the “TAMRA EC1.5 (μM)” value was “C (EC1.5>25 μM)” and the Emax was under 350%.

In the case of `O=C(Nc1cnc2ccc(-c3ccccc3C(F)(F)F)nn12)c1cnccn1` [Compound 88], the “TAMRA EC1.5 (μM)” value is listed as “A (EC1.5<1 μM)” and the Emax is at least 350%.

Turning to `O=C(Nc1ccnc(OCC(O)CO)c1)c1cnc2ccc(-c3ccccc3C(F)(F)F)nn12` (stereo not drawn) [Compound 89], the “TAMRA EC1.5 (μM)” value was “A (EC1.5<1 μM)” and the Emax is at least 350%.

Turning to `O=C(Nc1cnc2ccc(-c3ccccc3C(F)(F)F)nn12)c1ccncn1` [Compound 90], the “TAMRA EC1.5 (μM)” value is listed as “A (EC1.5<1 μM)” and the Emax was at least 350%.

With `Cn1ccnc1C(=O)Nc1cnc2ccc(-c3ccccc3C(F)(F)F)nn12` [Compound 91], the “TAMRA EC1.5 (μM)” value is on record as “B (EC1.5 1-25 μM)” and the Emax was at least 350%.

In the case of `O=C(Nc1ccncc1)c1cnc2ccc(-c3ccccc3Cl)nn12` [Compound 94], the “TAMRA EC1.5 (μM)” value is “B (EC1.5 1-25 μM)” and the Emax is under 350%.

As for `O=C(Nc1ccnc(N2CCC2)c1)c1cnc2ccc(-c3ccccc3Cl)nn12` [Compound 96], the “TAMRA EC1.5 (μM)” value is listed as “A (EC1.5<1 μM)” and the Emax was at least 350%.

For the compound `Cc1cncc(NC(=O)c2cnc3ccc(-c4ccccc4C(F)(F)F)nn23)c1` [Compound 97], the “TAMRA EC1.5 (μM)” value is given as “B (EC1.5 1-25 μM)” and the Emax was at least 350%.

In the case of `Cc1cc(NC(=O)c2cnc3ccc(-c4ccccc4C(F)(F)F)nn23)cc(C)n1` [Compound 99], the “TAMRA EC1.5 (μM)” value is listed as “A (EC1.5<1 μM)” and the Emax is at least 350%.

Turning to `O=C(Nc1ccncc1F)c1cnc2ccc(-c3ccccc3C(F)(F)F)nn12` [Compound 100], the “TAMRA EC1.5 (μM)” value is reported as “A (EC1.5<1 μM)” and the Emax was at least 350%.

Consider `COc1cccc(NC(=O)c2cnc3ccc(-c4ccccc4C(F)(F)F)nn23)n1` [Compound 103], for which the “TAMRA EC1.5 (μM)” value was “A (EC1.5<1 μM)” and the Emax is at least 350%.

For `O=C(Nc1cncnc1)c1cnc2ccc(-c3ccccc3C(F)(F)F)nn12` [Compound 106], the “TAMRA EC1.5 (μM)” value was “B (EC1.5 1-25 μM)” and the Emax is under 350%.

`O=C(Nc1cccnc1)c1cnc2ccc(-c3ccccc3C(F)(F)F)nn12` [Compound 108]: the “TAMRA EC1.5 (μM)” value is “B (EC1.5 1-25 μM)” and the Emax was under 350%.

With `Cc1cnc(NC(=O)c2cnc3ccc(-c4ccccc4C(F)(F)F)nn23)s1` [Compound 109], the “TAMRA EC1.5 (μM)” value is recorded as “A (EC1.5<1 μM)” and the Emax was at least 350%.

As for `O=C(Nc1ncc(F)cc1F)c1cnc2ccc(-c3ccccc3C(F)(F)F)nn12` [Compound 111], the “TAMRA EC1.5 (μM)” value is “B (EC1.5 1-25 μM)” and the Emax was under 350%.

The values above are taken from patent publication US9957271B2, “Substituted bicyclic aza-heterocycles and analogues as sirtuin modulators” (GlaxoSmithKline, LLC, priority 2012, dated 2018).
